The values that follow come from US11654196B2, “Dosing regimens for echinocandin class compounds” (priority 2012, dated 2023).

Where two headings read alike, the source gives them in different places. *1 amine or outer side, *2 acyl side, *3 side chain or, on linkers, in order; H or OH if unused. Where a SMILES comes first, the peptide text is derived from it. Bridges are numbered along the chain shown (N, C = ends). [ ]: non-standard residue; d: D form. The star is where a group is joined. pTerphenylCO(4''-OnC5H11) = CCCCCOc1ccc(-c2ccc(-c3ccc(C(=O)*)cc3)cc2)cc1; Orn(4R-OH,5R-OH) = O=C([C@H](C[C@@H](O)[C@@H](O)N[*:3])N[*:1])[*:2]; hTyr(3S-OH,4S-OH) = N[C@H](C(=O)O)[C@H](O)[C@@H](O)c1ccc(O)cc1; Pro(3S-OH,4S-Me) = C[C@H]1CN[C@H](C(=O)O)[C@H]1O; Hyp = O=C(O)[C@@H]1C[C@@H](O)CN1

For data set [1] the following is noted: Rabbit, literature values; cited from earlier work.
The conditions of data set [2]: Mouse, literature values; cited from earlier work.
Data set [3] is described as follows: Pharmacokinetics following intravenous administration in beagle dogs. Type of data set: in vivo. Conditions: 1.4 mg/kg IV slow bolus. The procedure: Echinocandin class compounds were administered to beagle dogs weighing approximately 6-10 kg. Each compound was dosed at 1.4 mg/kg in aqueous saline (with or without 0.5% Tween) over course of 1-10 minutes. […] The dogs were fasted at least 12 hours prior to each dosing and offered food after the 4-hour blood sample was taken; water was withheld for 1 hour prior to and 4 hours following each dosing event. The dose for each animal was based on its most recent body weight. The test article was injected intravenously via a catheter placed in the cephalic vein as a slow bolus.
Blood was collected via the jugular vein. All blood samples (1 mL each) were collected into K3EDTA tubes. Following blood collection, the samples were immediately inverted several times and were held on wet ice pending centrifugation. The samples were centrifuged within 30 minutes of collection under refrigeration (˜5° C. for 10 minutes at 2000 g) to obtain plasma. The plasma was frozen immediately on dry ice after separation. The plasma samples were stored at approximately ˜70° C. until analysis.
Plasma (100 μL) was precipitated with 400 μL of 0.1% formic acid in acetonitrile containing the internal standard (100 ng/mL pneumocandin). The samples were then capped and vortexed for about 30 seconds followed by centrifugation at 14,000 rpm at room temperature for 10 minutes. Following centrifugation 200 μL of supernatant was transferred to plastic autosampler vials containing 200 μL of 0.1% formic acid in water and vortexed. Samples were then analyzed by LCMSMS.
All pharmacokinetic calculations were performed using WinNonlin version 4.1 (Pharsight Corp) by noncompartmental analysis.

For data set [4] the following is noted: Dog, literature values; cited from earlier work.
For data set [5] the following is noted: Man, literature values; cited from earlier work.
The conditions of data set [6]: Rat, literature values; cited from earlier work.
Data set [7] is described as follows: Pharmacokinetics in chimpanzee, oral dose. It counts as in vivo. How it is done: Pharmacokinetic studies were performed in six adult female chimpanzees. Two chimpanzees received 1-mg/kg IV dose of compound 22 formulated in 5% dextrose (60-minute infusion). Two chimpanzees received 10-mg/kg oral dose of compound 22 formulated in 5% citric acid (oral bolus). Two chimpanzees received 1-mg/kg IV dose of anidulafungin formulated as package label (5% dextrose, 60-minute infusion). Plasma samples were collected from all chimps for 10 days to 22 days. PK curves are depicted in FIGS. 16A, 16B, and 18. All pharmacokinetic calculations were performed using WinNonlin version 4.1 (Pharsight Corp) by noncompartmental analysis.

Data set [8] is described as follows: Circulating half-life in mouse. Type of data set: in vivo. Particulars: assays conducted by applicant.
The nature of data set [9]: Storage stability of solutions and lyophilized formulations (HPLC). It counts as physicochemical. Particulars: for Loss in potency: clear vial, ambient light, 4 months.
Data set [10] in a line: Dissolution profile of tableted formulation 17. It counts as physicochemical. The procedure:
A dissolution study of the tablet of formulation 17 was performed using 500 mL of 100 mM Acetate Buffer pH 5.2 as the medium. The method utilized Apparatus 2 with a paddle speed of 50 rpm, a tablet sinker, and the run time was 60 minutes. […] The HPLC method was a gradient method using an Agilent Zorbax Bonus-RP column (250×4.6 mm) (column temperature of 60° C., wavelength of 300 nm, with Mobile Phase A=33 mM sodium pentanesulfonate pH 4.0 and Mobile Phase B=acetonitrile). The samples were injected neat with an injection volume of 15 μL.

In general, AUC refers to concentration integrated over time. As usually defined, the Cmax is the highest concentration seen after dosing. Regarding `CCCCCOc1ccc(-c2ccc(-c3ccc(C(=O)N[C@H]4C[C@@H](O)[C@@H](O)NC(=O)[C@@H]5[C@@H](O)[C@@H](C)CN5C(=O)[C@H]([C@@H](C)O)NC(=O)[C@H]([C@H](O)[C@@H](O)c5ccc(O)cc5)NC(=O)[C@@H]5C[C@@H](O)CN5C(=O)[C@H]([C@@H](C)O)NC4=O)cc3)cc2)cc1` [Anidulafungin, anidulafungin, reference compound] ({pTerphenylCO(4''-OnC5H11)}-[Orn(4R-OH,5R-OH)]T[Hyp][hTyr(3S-OH,4S-OH)]T[Pro(3S-OH,4S-Me)]; lactam 1-C), the Half-life in data set [1] was 4 to 6 h; in data set [2], 14 to 20 h; in data set [4], 15 h; in [5], 24 to 26 h; in data set [6], 18 h. The Mean clearance in data set [3] was 0.0471 L/h/kg. Besides, the T1/2 in data set [3] was 11.6 h. For the same compound, the “Volume of Distribution” value in [3] came out at 0.779 L/kg. For the same compound, the AUC in [3] (dog, in vivo, read-out: AUC) was 27.8 µg·h/mL. Also, in data set [3] (dog, in vivo, read-out: Cmax), the Cmax is 3.23 µg/mL.
Take `CC(=O)[O-].CCCCCOc1ccc(-c2ccc(-c3ccc(C(=O)NC4CC(O)C(OCC[N+](C)(C)C)NC(=O)C5C(O)C(C)CN5C(=O)C(C(C)O)NC(=O)C(C(O)C(O)c5ccc(O)cc5)NC(=O)C5CC(O)CN5C(=O)C(C(C)O)NC4=O)cc3)cc2)cc1` (stereo not shown) [Compound 22]: in [3], the AUC is 48.7 µg·h/mL. Further, in data set [3], the Cmax was found to be 1.57 µg/mL. This compound also showed a Mean clearance in [3] of 0.0181 L/h/kg. In data set [3], this compound had a T1/2 of 53.1 h. Moreover, the “Volume of Distribution” value in data set [3] turned out to be 1.36 L/kg. The compound also registered an Oral bioavailability in data set [7] (chimpanzees, 10-mg/kg oral bolus in 5% citric acid) of 4.5%. Besides, the “Plasma half-life (PO)” value in data set [7] (chimpanzees, 10-mg/kg oral bolus in 5% citric acid, mean of 2 chimps) turned out to be 99 h. Besides, the “Oral bioavailability used to calculate human circulating concentrations” value in data set [7] (values based upon chimpanzee studies) is recorded as 5%. In addition, the Half-life in data set [8] fell in the range of 44 to 71 h. Moreover, the Loss in potency entry was “less than 5%” in data set [9] (5% Dextrose Solution (1.3 and 1.1 mg/mL) and 0.9% Sterile Saline Solution (1.3 mg/mL), room temperature); “less than 5%” in data set [9] (accelerated aging at 40° C., 5% Dextrose, 20 mM Acetate Buffer pH 4.5, 20 mM Lactate pH 6.0 (3.3 mg/mL)). The Stability upon storage entry in data set [9] (as a solid or in solution) is given as “commercially acceptable stability”. Moreover, the “% Compound 22 Dissolved” value was found to be 23% in data set [10] (tablet of formulation 17, 100 mM acetate buffer pH 5.2, 5 minutes); 48% in data set [10] (tablet of formulation 17, 100 mM acetate buffer pH 5.2, 10 minutes); 62% in data set [10] (tablet of formulation 17, 100 mM acetate buffer pH 5.2, 15 minutes); 93% in data set [10] (tablet of formulation 17, 100 mM acetate buffer pH 5.2, 30 minutes); 96% in [10] (tablet of formulation 17, 100 mM acetate buffer pH 5.2, 45 minutes); 97% in [10] (tablet of formulation 17, 100 mM acetate buffer pH 5.2, 60 minutes).
